# Source: PubChem BioAssay AID330 (DTP/NCI, 2004)
# Where “and” joins values, the source holds several entries; their conditions need not be identical. Equal entries are not always repeated. Inconclusive results and toxic doses are left out.
# System: P388 leukemia ip, CD2F1 mice, survival T/C
# Test: NCI In Vivo Anticancer Drug Screen. Data for tumor model P388 Leukemia (intraperitoneal) in CD2F1 (CDF1) mice
# Settings: endpoint: median survival time, higher = longer survival
# How it was run: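 Mice carrying the transplanted tumor received test compound or vehicle. Survival was recorded in each group, and the value is the treated-group measurement divided by that of the vehicle-treated control group.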
# [1] = dose: 12.5 mg/kg/injection, schedule: Q01DX009 (ip), vehicle: saline with Tween-80
# [2] = dose: 25.0 mg/kg/injection, schedule: Q01DX009 (ip), vehicle: saline with Tween-80
# [3] = dose: 50.0 mg/kg/injection, schedule: Q01DX009 (ip), vehicle: saline with Tween-80
# [4] = dose: 100.0 mg/kg/injection, schedule: Q01DX001 (ip), vehicle: saline with Tween-80
# [5] = dose: 200.0 mg/kg/injection, schedule: Q01DX001 (ip), vehicle: saline with Tween-80
# [6] = dose: 400.0 mg/kg/injection, schedule: Q01DX001 (ip), vehicle: saline with Tween-80
# [7] = dose: 100.0 mg/kg/injection, schedule: Q01DX009 (ip), vehicle: saline with Tween-80
# [8] = dose: 25.0 mg/kg/injection, schedule: Q01DX009 (ip), vehicle: Klucel (hydroxypropylcellulose) (HPC)
# [9] = dose: 50.0 mg/kg/injection, schedule: Q01DX009 (ip), vehicle: Klucel (hydroxypropylcellulose) (HPC)
# [10] = dose: 100.0 mg/kg/injection, schedule: Q01DX009 (ip), vehicle: Klucel (hydroxypropylcellulose) (HPC)
# [11] = dose: 50.0 mg/kg/injection, schedule: Q01DX005 (ip), vehicle: Klucel (hydroxypropylcellulose) (HPC)
# [12] = dose: 100.0 mg/kg/injection, schedule: Q01DX005 (ip), vehicle: Klucel (hydroxypropylcellulose) (HPC)
# [13] = dose: 200.0 mg/kg/injection, schedule: Q01DX005 (ip), vehicle: Klucel (hydroxypropylcellulose) (HPC)
# [14] = dose: 100.0 mg/kg/injection, schedule: Q04DX003 (ip), vehicle: saline with Tween-80
# [15] = dose: 200.0 mg/kg/injection, schedule: Q04DX003 (ip), vehicle: saline with Tween-80
# [16] = dose: 60.0 mg/kg/injection, schedule: Q01DX005 (ip), vehicle: saline with Tween-80
# [17] = dose: 120.0 mg/kg/injection, schedule: Q01DX005 (ip), vehicle: saline with Tween-80
# [18] = dose: 240.0 mg/kg/injection, schedule: Q01DX005 (ip), vehicle: saline with Tween-80
# [19] = dose: 50.0 mg/kg/injection, schedule: Q01DX005 (ip), vehicle: saline with Tween-80
# [20] = dose: 100.0 mg/kg/injection, schedule: Q01DX005 (ip), vehicle: saline with Tween-80
# [21] = dose: 200.0 mg/kg/injection, schedule: Q01DX005 (ip), vehicle: saline with Tween-80
# [22] = dose: 50.0 mg/kg/injection, schedule: Q01DX009 (ip), vehicle: saline
# [23] = dose: 12.5 mg/kg/injection, schedule: Q01DX009 (ip), vehicle: saline
# [24] = dose: 25.0 mg/kg/injection, schedule: Q01DX009 (ip), vehicle: saline
compound,measurement,setting,value
O=C1C=CC(=O)N1c1ccc([N+](=O)[O-])cc1,T/C,[1],101 % of control
same,T/C,[2],101 % of control
same,T/C,[3],99 % of control
C=CCSc1nc(N)nc(Nc2ccccc2)n1,T/C,[4],98 % of control
same,T/C,[5],92 % of control
same,T/C,[6],87 % of control
COc1cc(C(C)c2cc3c(cc2OCC(=O)O)OCO3)cc(OC)c1OC (stereo not given),T/C,"dose: 50.0 mg/kg/injection, schedule: Q01DX005 (ip), vehicle: distilled water + Tween-80",102 % of control
same,T/C,"dose: 100.0 mg/kg/injection, schedule: Q01DX005 (ip), vehicle: distilled water + Tween-80",97 % of control
same,T/C,"dose: 200.0 mg/kg/injection, schedule: Q01DX005 (ip), vehicle: distilled water + Tween-80",93 % of control
COc1cc(C(C)(C)C)cc(OC)c1C(O)(c1c(OC)cc(C(C)(C)C)cc1OC)c1c(OC)cc(C(C)(C)C)cc1OC,T/C,[2],121 % of control
same,T/C,[7],104 % of control
CCOC1(NC(=O)N(C)C)C2CCCC21 (stereo not given),T/C,[8],97 % of control
same,T/C,[9],97 % of control
same,T/C,[10],94 % of control
CCCN(CCC)CN1C(=O)c2ccccc2C1=O,T/C,"dose: 25.0 mg/kg/injection, schedule: Q01DX005 (ip), vehicle: Klucel (hydroxypropylcellulose) (HPC)",106 % of control and 92 % of control
same,T/C,[11],100 % of control and 105 % of control and 106 % of control
same,T/C,[12],109 % of control and 89 % of control and 95 % of control
same,T/C,[13],99 % of control and 108 % of control
CN(C)N=Nc1cccc(C(F)(F)F)c1,T/C,"dose: 25.0 mg/kg/injection, schedule: Q01DX008 (ip), vehicle: saline with Tween-80",104 % of control
same,T/C,"dose: 50.0 mg/kg/injection, schedule: Q01DX007 (ip), vehicle: saline",120 % of control
same,T/C,"dose: 50.0 mg/kg/injection, schedule: Q01DX008 (ip), vehicle: saline with Tween-80",101 % of control
same,T/C,"dose: 100.0 mg/kg/injection, schedule: Q01DX008 (ip), vehicle: saline with Tween-80",101 % of control
O=S1(=O)CC(N2CCCCC2)C=C(c2ccccc2)O1 (stereo not given),T/C,[3],103 % of control
same,T/C,[7],98 % of control
same,T/C,"dose: 200.0 mg/kg/injection, schedule: Q01DX009 (ip), vehicle: saline with Tween-80",95 % of control
CCCC(=O)Nc1cc2c3c(c1)CCCN3CCC2,T/C,[1],100 % of control
same,T/C,[2],95 % of control
O/N=C(\CC(O)(C(F)(F)F)C(F)(F)F)c1cccs1,T/C,[14],100 % of control
same,T/C,[15],95 % of control
same,T/C,"dose: 400.0 mg/kg/injection, schedule: Q04DX003 (ip), vehicle: saline with Tween-80",108 % of control
Cc1cc(=O)n2[nH]c(-c3ccc(C(C)(C)C)cc3)cc2n1,T/C,[16],111 % of control
same,T/C,[17],109 % of control
same,T/C,[18],93 % of control
CN(C)c1ccc(/C=N/NC(=O)CNC(=O)c2ccccc2)cc1,T/C,[16],94 % of control
same,T/C,[17],92 % of control
same,T/C,[18],96 % of control
O=C(Nc1cccc(NC(=O)Nc2cccc(C3=NCCN3)c2)c1)Nc1cccc(C2=NCCN2)c1,T/C,"dose: 90.0 mg/kg/injection, schedule: Q01DX010 (ip), vehicle: saline",100 % of control
COc1cc2c(cc1OC)C(C)P(C)(=O)CC2=O (stereo not given),T/C,[19],96 % of control and 99 % of control
same,T/C,[20],102 % of control and 101 % of control
same,T/C,[21],102 % of control and 99 % of control
Cc1ccc(N)c2ccccc12,T/C,[22],117 % of control
same,T/C,"dose: 100.0 mg/kg/injection, schedule: Q01DX009 (ip), vehicle: saline",112 % of control
CC(=O)N1c2ccccc2C(O)C1OC(=O)c1cccc(Cl)c1 (stereo not given),T/C,[16],100 % of control
same,T/C,[17],103 % of control
same,T/C,[18],89 % of control
CC[n+]1ccc(/C=C\c2c(Cl)cccc2Cl)cc1,T/C,"dose: 6.25 mg/kg/injection, schedule: Q01DX009 (ip), vehicle: saline",96 % of control
same,T/C,[23],104 % of control
same,T/C,[24],106 % of control
COc1ccc(CSC(=S)Nc2ccc(C(F)(F)F)cc2)cc1,T/C,"dose: 50.0 mg/kg/injection, schedule: Q01DX009 (ip), vehicle: suspension in saline",110 % of control
same,T/C,"dose: 100.0 mg/kg/injection, schedule: Q01DX009 (ip), vehicle: suspension in saline",101 % of control
same,T/C,"dose: 200.0 mg/kg/injection, schedule: Q01DX009 (ip), vehicle: suspension in saline",105 % of control
COC(=O)C1=C/N(C)CCC/C(C(N)=O)=C\1,T/C,[11],89 % of control
same,T/C,[12],102 % of control
same,T/C,[13],94 % of control
CCCCCCCCCCCCCCOCC(O)CN(CCO)CCO (stereo not given),T/C,[23],105 % of control
same,T/C,[24],105 % of control
same,T/C,[22],88 % of control and 98 % of control
CCOC(=O)C1SC(=S)N(c2ccccc2)C1N (stereo not given),T/C,[23],98 % of control
same,T/C,[24],104 % of control
same,T/C,[22],105 % of control and 86 % of control
O=c1[nH]c(=O)c2nc(-c3cccnc3)cnc2[nH]1,T/C,[22],103 % of control and 120 % of control
O=C1OC(C2OC(=O)C(=O)C2C(=O)c2ccc(Cl)cc2)C(C(=O)c2ccc(Cl)cc2)C1=O (stereo not given),T/C,"dose: 60.0 mg/kg/injection, schedule: Q01DX005 (ip), vehicle: saline + Tween-80 + alcohol",95 % of control
same,T/C,"dose: 120.0 mg/kg/injection, schedule: Q01DX005 (ip), vehicle: saline + Tween-80 + alcohol",92 % of control
same,T/C,"dose: 240.0 mg/kg/injection, schedule: Q01DX005 (ip), vehicle: saline + Tween-80 + alcohol",94 % of control
CCC(C)C(NC(=O)C(C)NC(=O)OCc1ccccc1)C(=O)O (stereo not given),T/C,[19],101 % of control
same,T/C,[20],101 % of control
same,T/C,[21],100 % of control
CCCCCCCCCCCCCCCC(=O)N(CCCN(C)C)C(C)(C)CCC(C)(C)N(CCCN(C)C)C(=O)CCCCCCCCCCCCCCC,T/C,"dose: 25.0 mg/kg/injection, schedule: Q01DX009 (ip), vehicle: other",98 % of control
same,T/C,"dose: 50.0 mg/kg/injection, schedule: Q01DX009 (ip), vehicle: other",96 % of control
CC(=O)OC1COC(n2nnc3c(=O)[nH]cnc32)C(OC(C)=O)C1OC(C)=O (stereo not given),T/C,[4],103 % of control
same,T/C,[5],103 % of control
same,T/C,[6],103 % of control
O=C1Oc2ccccc2[C@@H]2[C@H]1[C@@H]1C(=O)Oc3ccccc3[C@@H]12,T/C,[11],97 % of control
same,T/C,[12],97 % of control
same,T/C,[13],100 % of control
Cc1cc2nc3c(=O)[nH]c(=O)nc-3n(CC(O)C(O)C(O)CO)c2cc1C (stereo not given),T/C,[3],99 % of control and 104 % of control
same,T/C,[7],96 % of control and 98 % of control
CCCCCC/C=C/C1CC(=O)OC1=O (stereo not given),T/C,[14],95 % of control
CCOC(=O)C1=C(C(=O)c2ccc(OC)cc2)C(c2ccc(OC)c(OC)c2)C(C(=O)c2ccc(OC)cc2)=C(C(=O)OCC)N1,T/C,[16],90 % of control
same,T/C,[17],91 % of control
N#CC1Sc2ccccc2N1C(=O)OCc1ccccc1 (stereo not given),T/C,[16],93 % of control
same,T/C,[17],92 % of control
same,T/C,[18],91 % of control
COc1ccc(-c2[nH]c(=O)c(C#N)c(C(=O)NN)c2-c2ccc(OC)cc2)cc1,T/C,[16],112 % of control
same,T/C,[17],100 % of control
same,T/C,[18],89 % of control
Clc1ccc2c(c1)C(c1ccccc1)=NCc1nncn1-2,T/C,[8],103 % of control
same,T/C,[9],95 % of control
CC(C=O)CC1CCCCC1 (stereo not given),T/C,"dose: 50.0 mg/kg/injection, schedule: Q04DX003 (ip), vehicle: saline with Tween-80",100 % of control
same,T/C,[14],100 % of control
same,T/C,[15],109 % of control
NC(CCCOS(=O)(=O)O)Cc1ccc2ccccc2c1 (stereo not given),T/C,"dose: 100.0 mg/kg/injection, schedule: Q04DX003 (ip), vehicle: Klucel (hydroxypropylcellulose) (HPC)",100 % of control
same,T/C,"dose: 200.0 mg/kg/injection, schedule: Q04DX003 (ip), vehicle: Klucel (hydroxypropylcellulose) (HPC)",100 % of control
same,T/C,"dose: 400.0 mg/kg/injection, schedule: Q04DX003 (ip), vehicle: Klucel (hydroxypropylcellulose) (HPC)",94 % of control
Nc1nc2ncc(CN(C(=O)CCl)c3ccc(C(=O)NC(CCC(=O)O)C(=O)O)cc3)nc2c(=O)[nH]1 (stereo not given),T/C,[9],95 % of control
same,T/C,[10],107 % of control
same,T/C,"dose: 200.0 mg/kg/injection, schedule: Q01DX009 (ip), vehicle: Klucel (hydroxypropylcellulose) (HPC)",108 % of control
CC1(C)NC(=O)c2cccnc2S1,T/C,[16],89 % of control
same,T/C,[17],97 % of control
same,T/C,[18],99 % of control
